Results taken from patent US5612480A, “2-chloro and 2-bromo derivatives of 1,5-iminosugars” (priority 1995, dated 1997).

Experiments:
β-Glucosidase (almond) [1] = experiment: Beta-glucosidase (almond) inhibitor assay, pH 4.8; assay type: biochemical
Description: (§1) Yeast alpha-glucosidase and almond beta-glucosidase activities were measured by a modification of the method of Evans, et al., Phytochemistry 22, 768-770 (1983). The modifications included (1) assay of activities at pH 7.4 in HEPES (N-2-hydroxyethylpiperazine-N'-2-ethanesulfonic acid) buffer, 2) measurement in 96 well microtiter plates and (3) inclusion of 10% DMSO in control and test samples.
(§2) The release of p-nitrophenol from the substrate p-nitrophenylglycoside was measured spectrophotometrically in the presence and absence of test compound. Each assay included a known inhibitor of the enzyme as a standard. IC50 values were determined for compounds which inhibited the enzymes more than 50% at a 1 millimolar concentration.
To 100 μl 50 mM sodium citrate buffer, pH 4.8, in a microtiter plate, add 15 μl test compound in DMSO (DMSO alone in control), 20 μl (0.017 units) beta-glucosidase (Sigma) in citrate buffer and pre-incubate at room temperature for 15 minutes. Add 25 μl 2.50 mM p-nitrophenyl-beta-D-glucopyranoside in citrate buffer, as substrate. Incubate at room temperature 20 minutes (reaction is linear for at least 30 minutes). Add 50 μl 0.4 M NaOH. Read absorption change at 405 nm in a Biotek EIA Autoreader. Each sample was tested in triplicate. IC50 values were determined from the linear portion of the log concentration vs % inhibition curve obtained from a minimum of 3 points. Castanospermine was used as standard inhibitor.

α-Glucosidase (yeast) = molecular target: T1, α-Glucosidase (yeast) (Saccharomyces cerevisiae, UniProt P53341); experiment: Alpha-glucosidase (yeast) inhibition assay, pH 7.4; assay type: biochemical; details: pH 7.4, read-out: Percent inhibition of α-glucosidase (yeast)
T1 construct: purchased Sigma
T1 sequence (P53341 whole entry): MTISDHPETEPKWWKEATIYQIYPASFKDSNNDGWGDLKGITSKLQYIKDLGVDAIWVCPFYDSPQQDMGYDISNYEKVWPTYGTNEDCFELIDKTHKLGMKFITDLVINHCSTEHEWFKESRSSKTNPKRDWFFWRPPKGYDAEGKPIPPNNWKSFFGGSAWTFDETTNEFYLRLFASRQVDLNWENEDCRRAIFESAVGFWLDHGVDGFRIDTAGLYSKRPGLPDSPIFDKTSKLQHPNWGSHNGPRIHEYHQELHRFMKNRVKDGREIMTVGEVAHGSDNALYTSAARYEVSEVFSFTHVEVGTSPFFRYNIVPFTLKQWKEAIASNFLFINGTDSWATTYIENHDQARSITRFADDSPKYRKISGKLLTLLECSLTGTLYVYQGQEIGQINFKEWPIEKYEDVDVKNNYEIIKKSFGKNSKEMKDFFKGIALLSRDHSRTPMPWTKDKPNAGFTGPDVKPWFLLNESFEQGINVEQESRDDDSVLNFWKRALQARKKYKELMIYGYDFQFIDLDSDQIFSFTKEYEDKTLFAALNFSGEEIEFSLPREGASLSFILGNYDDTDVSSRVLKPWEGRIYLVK
Description: as §1, §2
(§3) To 100 μl 50 mM HEPES buffer, pH 7.4, in a microtiter plate, add 20 μl test compound in DMSO (DMSO alone in control), 40 μl (0.013 units) yeast alpha-glucosidase (Sigma) in HEPES buffer and pre-incubate at room temperature for 15 minutes. Add 40 μl 1.25 mM p-nitrophenyl-alpha-D-glucopyranoside (Sigma) in HEPES buffer, as substrate, and monitor absorbance change at 405 nm in a Biotek EIA Autoreader. Absorption change was measured at 15 to 25 minutes (reaction was linear for at least 30 minutes). Each sample was tested in triplicate. IC50 values were determined from the linear portion of the log concentration vs % inhibition curve obtained from a minimum of 3 points. Deoxynojirimycin was used as standard inhibitor.

β-Glucosidase (almond) [2] = experiment: Beta-glucosidase (almond) inhibition assay, pH 7.4; assay type: biochemical
Description: as §1, §2
as §3, with “μl (0.136” for “μl (0.013”, “units) beta-glucosidase” for “units) yeast alpha-glucosidase”, “mM p-nitrophenyl-beta-D-glucopyranoside” for “mM p-nitrophenyl-alpha-D-glucopyranoside (Sigma)”, “as substrate” for “as substrate,”, “(reaction is” for “(reaction was”, “points. Castanospermine” for “points. Deoxynojirimycin”

visna virus = experiment: Inhibition of visna virus growth, plaque reduction assay in sheep choroid plexus (SCP) cells (Method A); assay type: cell-based; details: Visna-maedi virus; for inhibition at 10 µM: 0.01 mM; for inhibition at 100 µM: 0.1 mM; for inhibition at 1000 µM: 1.0 mM
Text: Inhibitory activity against visna virus was shown by a conventional plaque reduction assay. Visna virus, a lentivirus genetically very similar to the AIDS virus, is pathogenic for sheep and goats. See Sonigo et al., Cell 42, 369-382 (1985); Haase, Nature 322, 130-136 (1986). Inhibition of visna virus replication in vitro as a useful model for HIV and its inhibition by test compounds has been described by Frank et al., Antimicrobial Agents and Chemotherapy 31 (9), 1369-1374 (1987).
Various illustrative compounds synthesized above were tested for inhibition of visna virus in vitro in a plaque reduction assay (Method A) or for inhibition of HIV-1 in a test which measured reduction of cyto-pathogenic effect in virus-infected syncytium-sensitive Leu-3a-positive CEM cells grown in tissue culture (Method B) as follows:
Sheep choroid plexus (SCP) cells were obtained from American Type Culture Collection (ATCC) catalogue number CRL 1700 and were routinely passaged in vitro in Dulbecco's Modified Eagles (DME) medium supplemented with 20% fetal bovine serum (FBS). SCP cells were passaged once per week at a 1:2 or 1:3 split ratio. Visna was titrated by plaque assay in six-well plates. Virus pools were stored at -70° C.
SCP cells were cultured in 6-well plates to confluence. Wells were washed two times with serum free Minimal Essential Medium (MEM) to remove FBS. 0.2 ml of virus was added per well in MEM supplemented with 4 mM glutamine and gentamycin. After 1 hour adsorption, the virus was aspirated from each well. The appropriate concentration of each compound in 5 ml of Medium 199 (M-199) supplemented with 2% lamb serum, 4 mM glutamine, 0.5% agarose and gentamycin was added to each well. Cultures were incubated at 37° C. in a humidified 5% CO2 incubator for 3-4 weeks. To terminate the test, cultures were fixed in 10% formalin, the agar removed, the monolayers stained with 1% crystal violet and plaques counted. Each compound concentration was run in triplicate. […] 0 is no toxicity observed while 4 is total lysing of the cell monolayer. […]
Control wells without virus were completed to determine the toxicity of compounds.

Percent inhibition of β-glucosidase (almond) (β-Glucosidase (almond) [1]; 100 μM)	Percent inhibition of β-glucosidase (almond) (β-Glucosidase (almond) [1]; 1000 μM)	inhibition at 100 µM (α-Glucosidase (yeast))	inhibition at 1000 µM (α-Glucosidase (yeast))	Percent inhibition of β-glucosidase (almond) (β-Glucosidase (almond) [2]; 100 μM)	Percent inhibition of β-glucosidase (almond) (β-Glucosidase (almond) [2]; 1000 μM)	Structure (SMILES)	inhibition at 10 µM (visna virus)	inhibition at 100 µM (visna virus)	inhibition at 1000 µM (visna virus)	inhibition at 1 µM (visna virus; 0.001 mM)	inhibition at 0.5 µM (visna virus; 0.0005 mM)	inhibition at 5 µM (visna virus; 0.005 mM)	inhibition at 50 µM (visna virus; 0.05 mM)
1.8%	18.6%	36.2%	44%	-7.5%	13.2%	CCCCN1[C@H](CO)[C@@H](O)[C@H](O)[C@H]1COC(=O)c1ccccc1 [Example 58, 2,5-(Butylimino)-2,5-dideoxy-D-mannitol, 1-benzoate]							
						CCCCN1C[C@H](Cl)[C@@H](OC(C)=O)[C@H](OC(C)=O)[C@H]1COC(C)=O [Example 38, 1,5-(Butylimino)-2-chloro-1,2,5-trideoxy-D-glucitol, triacetate]	61%	86%	97%				
						CCCCN1C[C@H]2O[C@H]2[C@H](OC(C)=O)[C@H]1COC(C)=O [Example 45, 2,3-Anhydro-1,5-(butylimino)-1,5-dideoxy-D-mannitol, diacetate]	5%	44%	85%				
6%	26%	27.1%	39.3%	-3.8%	4.4%	CCCCN1[C@H](CO)[C@@H](O)[C@H](O)[C@H]1CNC(C)=O [Example 51, 1-(Acetylamino)-2,5-(butylimino)-1,2,5-trideoxy-D-mannitol]							
						CCCCN1C[C@H](OC(=O)OCC(C)C)[C@@H](O)[C@H](O)[C@H]1CO [Example 34, 1,5-(Butylimino)-1,5-dideoxy-D-glucitol, 2-[(2-methylpropyl)-carbonate]]	7%	89%	100%	-2%			
						CC(=O)OC[C@@H]1[C@@H](OC(C)=O)[C@H](OC(C)=O)[C@@H](Cl)CN1CCCc1ccccc1 [Example 39, 2-Chloro-1,2,5-trideoxy-1,5-(3-phenyl)propylimino-D-glucitol, triacetate]					44%	58%	98%
0.1%	4.1%	23.5%	22.6%	-7.8%	-7.9%	CCCCN1[C@H](CO)[C@@H](O)[C@H](O)[C@H]1CC#N [Example 54, 3,6-(Butylimino)-2,3,6-trideoxy-D-manno-heptanonitrile]							
10.9%	18.8%	-12.6%	-20.5%	-5.3%	0.2%	CCCCN(CCCC)C[C@@H]1[C@@H](O)[C@H](O)[C@@H](CO)N1CCCC [Example 49, 2,5-(Butylimino)-1-(dibutylamino)-1,2,5-trideoxy-D-mannitol]							
